System: Mus musculus
Assay: Evaluated in vitro for anesthetic activity in mice and ED50 value was reported
Format: functional

SMILES | ED50
FC(F)OC(Cl)C(F)(F)F (stereo not drawn) [ISOFLURANE] | 0.57
FC(F)(F)C(Cl)Br (stereo not drawn) [HALOTHANE] | 0.77
COC(F)(F)C(Cl)Cl [METHOXYFLURANE] | 0.22
ClC(Cl)Cl [CHLOROFORM] | 0.84

System: Canis familiaris
Assay: Evaluated in vitro for anesthetic activity in dog and minimum alveolar concentration (MAC) was determined
Format: functional, Canis lupus familiaris
Design: unit not given here

SMILES | MAC
FC(F)OC(F)(F)C(F)Cl (stereo not drawn) | 2.06
FC(F)OC(Cl)C(F)(F)F (stereo not drawn) [ISOFLURANE] | 1.28
FC(F)(F)C(Cl)Br (stereo not drawn) [HALOTHANE] | 0.87
COC(F)(F)C(Cl)Cl [METHOXYFLURANE] | 0.24
ClC(Cl)Cl [CHLOROFORM] | 0.77

System: Homo sapiens
Assay: Evaluated in vitro for anesthetic activity in man and minimum alveolar concentration (MAC) was determined
Format: functional
Design: unit not given here

SMILES | MAC
FC(F)OC(F)(F)C(F)Cl (stereo not drawn) | 1.68
FC(F)OC(Cl)C(F)(F)F (stereo not drawn) [ISOFLURANE] | 1.15
FC(F)(F)C(Cl)Br (stereo not drawn) [HALOTHANE] | 0.74
COC(F)(F)C(Cl)Cl [METHOXYFLURANE] | 0.16
ClC(Cl)Cl [CHLOROFORM] | 0.5

System: not listed separately
Assay: Partition coefficient was determined in oil/gas system and value was reported
Format: ADME

Partition coefficient | SMILES
97 | FC(F)OC(Cl)C(F)(F)F (stereo not drawn) [ISOFLURANE]
220 | FC(F)(F)C(Cl)Br (stereo not drawn) [HALOTHANE]
950 | COC(F)(F)C(Cl)Cl [METHOXYFLURANE]

SMILES | Partition coefficient
FC(F)OC(F)(F)C(F)Cl (stereo not drawn) | 98

Reference: ChEMBL document CHEMBL1122102, “Hydrogen bonding and anesthetic potency” (J Med Chem, 1982)
